Legend:
[1] = test system: TNFα production in RAW 264.7 macrophage cell line; test: Mouse TNF alpha quantification assay (LPS-stimulated macrophages, ELISA); assay type: cell-based; settings: RAW264.7, RAW 264.7 murine leukemia virus transformed macrophage cell lines, LPS stimulation, read-out: TNF-α % Inhibition at 30 μM
[2] = test system: IL6 production in RAW 264.7 macrophage cell line; test: Mouse IL6 quantification assay (LPS-stimulated macrophages, ELISA); assay type: cell-based; settings: RAW264.7, RAW 264.7 murine leukemia virus transformed macrophage cell lines, LPS stimulation, read-out: IL-6 % Inhibition at 30 μM

SMILES | inhibition at 30 µM [1] [%] | inhibition at 30 µM [2] [%]
COc1ccc(C2CN(C(=O)c3csc4c(O)nc(-c5ccccn5)nc34)CCN2)cc1 (stereo not drawn) [drawing 2198] | 0 | 51 to 75
Cc1ccccc1C1CN(C(=O)c2csc3c(O)nc(-c4ccccn4)nc23)CCN1 (stereo not drawn) [drawing 2199] | 1 to 25 | 76 to 100
O=C(c1csc2c(O)nc(-c3ccccn3)nc12)N1CCNC(c2ccccc2F)C1 (stereo not drawn) [drawing 2200] | 1 to 25 | 76 to 100
Cn1cc(C2CN(C(=O)c3csc4c(O)nc(-c5ccccn5)nc34)CCN2)cn1 (stereo not drawn) [drawing 2201] | 76 to 100 | 76 to 100
O=C(c1csc2c(O)nc(-c3ccccn3)nc12)N1CCNC(Cc2ccccc2)C1 (stereo not drawn) [drawing 2202] | 1 to 25 | 76 to 100
COc1ccnc(-c2nc(O)c3c(C#N)csc3n2)c1 [drawing 2203] | 0 | 1 to 25
O=C(NCCc1ccc(O)c(O)c1)c1csc2nc(-c3ccccn3)nc(N3CCOCC3)c12 [drawing 2204] | 0 | 1 to 25
COCCCCNC(=O)c1csc2nc(-c3ccccn3)nc(N3CCOCC3)c12 [drawing 2205] | 1 to 25 | 1 to 25
COCCN(CCOC)c1nc(-c2ccccn2)nc2scc(C(=O)NCCc3ccc(OC)nc3)c12 [drawing 2206] | 0 | 1 to 25
COc1ccc2c(c1)CCC2C(=O)Nc1ccnc(-c2ccccn2)n1 (stereo not drawn) [drawing 2207] | 0 | 26 to 50
N#Cc1ccc(COCC(=O)Nc2ccnc(-c3ccccn3)n2)cc1 [drawing 2208] | 1 to 25 | 1 to 25
Cc1cnc(-c2ccccn2)nc1NC(=O)C(C)c1ccc(C#N)cc1 (stereo not drawn) [drawing 2209] | 1 to 25 | 1 to 25
CC(C(=O)Nc1nc(-c2ccccn2)nc2sccc12)c1ccc(C#N)cc1 (stereo not drawn) [drawing 2210] | 0 | 51 to 75
N#Cc1ccc(COCC(=O)Nc2nc(-c3ccccn3)nc3sccc23)cc1 [drawing 2211] | 1 to 25 | 51 to 75
COc1cnc(CN)[nH]c1=O [drawing 2212] | 1 to 25 | 0
COc1ccc(N2CCN(C(=O)c3csc4c(O)nc(-c5ccccn5)nc34)CC2)cc1O [drawing 2213] | 0 | 26 to 50
O=C(c1csc2c(O)nc(-c3ccccn3)nc12)N1CCN(c2ccc(O)c(Cl)c2)CC1 [drawing 2214] | 0 | 26 to 50
CC(c1ccccc1)N1CCN(C(=O)c2csc3c(O)nc(-c4ccccn4)nc23)CC1 (stereo not drawn) [drawing 2215] | 0 | 51 to 75
O=C(c1csc2c(O)nc(-c3ccccn3)nc12)N1CCNC(c2ccccc2Cl)C1 (stereo not drawn) [drawing 2216] | 0 | 51 to 75
O=C(c1csc2c(O)nc(-c3ccccn3)nc12)N1CCNC(c2ccc(F)cc2)C1 (stereo not drawn) [drawing 2217] | 0 | 1 to 25
O=C(c1csc2c(O)nc(-c3ccccn3)nc12)N1CCNC(c2ccc(O)cc2)C1 (stereo not drawn) [drawing 2218] | 0 | 1 to 25
COCCCCNC(=O)c1csc2nc(-c3ccccn3)nc(N3CCS(=O)(=O)CC3)c12 [drawing 2219] | 0 | 26 to 50
Cc1cnc(-c2ccccn2)nc1NC(=O)C1CCCc2cc(C#N)ccc21 (stereo not drawn) [drawing 2220] | 51 to 75 | 76 to 100
O=C(COCc1ccncc1)Nc1nc(-c2ccccn2)nc2sccc12 [drawing 2221] | 1 to 25 | 76 to 100

SMILES | inhibition at 30 µM [1] [%] | inhibition at 30 µM [2] [%]
O=C(COCc1cccnc1)Nc1nc(-c2ccccn2)nc2sccc12 [drawing 2222] | 1 to 25 | 51 to 75
COc1cccc(CC2CN(C(=O)c3csc4c(O)nc(-c5ccccn5)nc34)CCN2)c1 (stereo not drawn) [drawing 2223] | 1 to 25 | 1 to 25
O=C(c1csc2c(O)nc(-c3ccccn3)nc12)N1CCNC(Cc2ccc(F)cc2)C1 (stereo not drawn) [drawing 2224] | 1 to 25 | 26 to 50
COc1ccnc(-c2nc(O)c3c(C(F)(F)F)csc3n2)c1 [drawing 2226] | 1 to 25 | 51 to 75
Nc1nc(-c2ccccn2)nc2ccsc12 [drawing 2227] | 1 to 25 | 0
Nc1nc(-c2ccccn2)nc2c(-c3ccccc3Cl)csc12 [drawing 2228] | 1 to 25 | 76 to 100
Cc1cc2nc(-c3ccccn3)nc(N)c2s1 [drawing 2229] | 1 to 25 | 1 to 25
Cc1sc2c(N)nc(-c3ccccn3)nc2c1-c1ccccc1 [drawing 2230] | 1 to 25 | 51 to 75
O=C(c1csc2c(O)nc(-c3ccccn3)nc12)N1CC2CC1CN2c1ccccc1 (stereo not drawn) [drawing 2231] | 0 | 51 to 75
O=C(c1csc2c(O)nc(-c3ccccn3)nc12)N1CCC(c2ccncc2)C1 (stereo not drawn) [drawing 2232] | 1 to 25 | 76 to 100
O=C(c1csc2c(O)nc(-c3ccccn3)nc12)N1CCC(c2cccc(O)c2)C1 (stereo not drawn) [drawing 2233] | 26 to 50 | 76 to 100
O=C(c1cc2nc(-c3ccccn3)nc(O)c2s1)N1CCN(c2ccccc2)CC1 [drawing 2234] | 0 | 26 to 50
O=C(c1cc2nc(-c3ccccn3)nc(O)c2s1)N1CCOC(c2ccccc2)C1 (stereo not drawn) [drawing 2235] | 1 to 25 | 1 to 25
O=C(NCCc1cccnc1)c1cc2nc(-c3ccccn3)nc(O)c2s1 [drawing 2236] | 1 to 25 | 26 to 50
Cc1ccc(OC2CCCC2)c(-c2csc3c(O)nc(-c4ccccn4)nc23)c1 [drawing 2237] | 51 to 75 | 76 to 100
CN(C)Cc1ccc(-c2csc3c(O)nc(-c4ccccn4)nc23)cc1F [drawing 2238] | 51 to 75 | 76 to 100
COCc1ccc(-c2csc3c(O)nc(-c4ccccn4)nc23)cc1F [drawing 2239] | 51 to 75 | 76 to 100
CC(C)(C)c1ccc(-c2csc3c(O)nc(-c4ccccn4)nc23)cc1 [drawing 2240] | 76 to 100 | 76 to 100
Oc1nc(-c2ccccn2)nc2c(-c3cc(Cl)cc(Cl)c3)csc12 [drawing 2241] | 1 to 25 | 0
Oc1nc(-c2ccccn2)nc2c(-c3cccc4c3OCO4)csc12 [drawing 2242] | 51 to 75 | 51 to 75
O=C(O)c1cc2nc(-c3ccccn3)nc(O)c2s1 [drawing 2243] | 1 to 25 | 1 to 25
Oc1nc(-c2ccccn2)nc2sc3c(c12)CCNC3 [drawing 2244] | 26 to 50 | 26 to 50
Oc1nc(-c2ccccn2)nc2sc3c(c12)CCCNC3 [drawing 2245] | 1 to 25 | 1 to 25
COc1ccc(CCNC(=O)c2csc3nc(-c4ccccn4)nc(N4CCS(=O)(=O)CC4)c23)cn1 [drawing 2246] | 0 | 26 to 50

From patent US10940139B2, “Compounds that interact with the Ras superfamily for the treatment of cancers, inflammatory diseases, rasopathies, and fibrotic disease” (Shy Therapeutics LLC, priority 2017, dated 2021)
